According to patent US7781421B2, “Neuroactive 13, 24-cyclo-18, 21-dinorcholanes and structurally related pentacyclic steriods” (Washington University, priority 2003, dated 2010):
Where two headings read alike, the source gives them in different places.

What was measured:
Xenopus laevis tadpoles = experiment: Tadpole loss of righting (LRR) and swimming (LSR) reflexes; type: in vivo; conditions: 3 h equilibration at room temperature; for EC50: read-out: LSR EC50 (loss of swimming response)
Method in brief: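 Groups of 10 early prelimb-bud Xenopus laevis tadpoles were held for 3 h at room temperature in oxygenated Ringer's containing compound (DMSO ≤0.1%). Loss of righting was scored as failure to right within 5 sec after flipping, and loss of swimming as failure to swim when touched. EC50 came from a Hill equation fit.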

[1] = molecular target: T1, rat α1β2γ2 GABAA Receptor (Rattus norvegicus, UniProt P18508+P62813+P63138, INS375LLRMFSFK); experiment: Xenopus oocyte two-electrode voltage-clamp electrophysiology; type: cell-based; conditions: for Oocyte electrophysiology, ratio of currents in presence/absence of compound, 0.1 μM: 0.1 μM compound co-applied with 2 μM GABA; for Oocyte electrophysiology, ratio of currents in presence/absence of compound, 0.1 μM / Oocyte electrophysiology, ratio of currents in presence/absence of compound, 1 μM / Oocyte electrophysiology, ratio of currents in presence/absence of compound, 10 μM: −70 mV; for Oocyte electrophysiology, ratio of currents in presence/absence of compound, 1 μM: 1 μM compound co-applied with 2 μM GABA; for Oocyte electrophysiology, ratio of currents in presence/absence of compound, 10 μM: 10 μM compound co-applied with 2 μM GABA; for Gating (10 μM), ratio of compound only current/2 μM GABA current: direct current gated by 10 μM compound in the absence of GABA
T1 construct: from linearized pBluescript vectors containing receptor coding regions; expressed in transfected cells; host or cells: Xenopus laevis oocytes injected with in vitro transcribed capped mRNA
Method in brief: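 Oocytes injected with rat α1, β2, γ2L mRNA, voltage-clamped at −70 mV 2-5 days later in ND96. Compounds co-applied with 2 μM GABA for 20 s; peak current ratio with/without compound, n≥4 oocytes. (G): current from 10 μM compound alone, as ratio to 2 μM GABA current.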

[2] = molecular target: GABAA receptor ([35S]-TBPS binding site, rat brain cortical membranes); experiment: Displacement of [35S]-TBPS binding, rat brain cortical membranes; conditions: 5 μM GABA, 2 nM [35S]-TBPS; ± standard error of the means
Method in brief: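 Rat cortical P2 membranes (0.5 mg/mL protein) incubated 2 h at room temperature with 2 nM [35S]-TBPS, 5 μM GABA and steroid (1 nM–10 μM) in 200 mM NaCl/50 mM potassium phosphate, pH 7.4. Filter-bound radioactivity counted; IC50 from Hill equation fit, triplicate points.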

T1 sequence (P62813 28-455, stated change not applied): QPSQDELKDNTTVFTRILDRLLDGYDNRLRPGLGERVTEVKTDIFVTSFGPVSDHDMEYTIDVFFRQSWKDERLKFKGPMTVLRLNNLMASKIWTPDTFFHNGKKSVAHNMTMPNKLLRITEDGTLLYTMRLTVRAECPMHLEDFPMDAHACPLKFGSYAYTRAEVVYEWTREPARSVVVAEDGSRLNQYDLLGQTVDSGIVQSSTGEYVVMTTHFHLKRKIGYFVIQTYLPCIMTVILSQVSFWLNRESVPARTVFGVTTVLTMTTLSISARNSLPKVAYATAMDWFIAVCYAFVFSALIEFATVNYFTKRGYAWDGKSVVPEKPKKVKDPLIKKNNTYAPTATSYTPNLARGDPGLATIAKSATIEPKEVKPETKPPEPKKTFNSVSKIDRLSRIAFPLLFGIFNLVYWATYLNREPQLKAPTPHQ
T1 sequence (P63138 26-474, stated change not applied): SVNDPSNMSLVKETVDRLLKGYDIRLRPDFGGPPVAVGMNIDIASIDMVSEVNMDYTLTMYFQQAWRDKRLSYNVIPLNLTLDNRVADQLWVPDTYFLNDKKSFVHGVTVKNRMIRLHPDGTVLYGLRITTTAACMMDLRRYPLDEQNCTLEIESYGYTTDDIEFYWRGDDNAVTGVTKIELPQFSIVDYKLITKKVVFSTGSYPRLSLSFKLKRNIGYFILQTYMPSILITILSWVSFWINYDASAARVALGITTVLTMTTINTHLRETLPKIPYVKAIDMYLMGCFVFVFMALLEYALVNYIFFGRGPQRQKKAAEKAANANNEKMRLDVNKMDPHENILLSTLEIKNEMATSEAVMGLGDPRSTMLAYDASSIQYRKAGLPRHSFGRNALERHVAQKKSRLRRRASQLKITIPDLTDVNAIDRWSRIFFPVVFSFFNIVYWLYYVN
T1 sequence (P18508 with tags, fused parts or gaps INS375LLRMFSFK): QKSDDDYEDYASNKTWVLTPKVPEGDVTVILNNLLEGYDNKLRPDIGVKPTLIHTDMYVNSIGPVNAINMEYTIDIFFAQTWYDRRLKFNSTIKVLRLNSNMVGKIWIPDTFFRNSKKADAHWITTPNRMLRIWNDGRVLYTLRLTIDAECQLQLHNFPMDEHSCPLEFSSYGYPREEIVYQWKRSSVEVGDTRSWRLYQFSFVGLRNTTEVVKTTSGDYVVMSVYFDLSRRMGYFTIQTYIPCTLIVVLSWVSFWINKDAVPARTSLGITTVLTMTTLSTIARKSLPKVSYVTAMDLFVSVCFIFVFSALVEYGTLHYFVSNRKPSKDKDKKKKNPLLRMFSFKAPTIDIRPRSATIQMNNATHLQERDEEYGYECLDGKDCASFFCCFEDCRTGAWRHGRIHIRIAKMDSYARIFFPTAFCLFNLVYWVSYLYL

Row | Compound | melting point [°C] | LRR ED50 (loss of righting response) (Xenopus laevis tadpoles) | EC50 (Xenopus laevis tadpoles; Xenopus laevis, 3 h) [nM] | Oocyte electrophysiology, ratio of currents in presence/absence of compound, 0.1 μM [1] | Oocyte electrophysiology, ratio of currents in presence/absence of compound, 1 μM [1] | Oocyte electrophysiology, ratio of currents in presence/absence of compound, 10 μM [1] | Gating (10 μM), ratio of compound only current/2 μM GABA current [1] | IC50 [2] [nM] | EC50 (Xenopus laevis tadpoles) [nM] | LSR EC50 (loss of swimming response) (Xenopus laevis tadpoles)
1 | C[C@]12CC[C@@H](O)C[C@H]1CCC1C3CCC4CCC(=O)C[C@@]43CCC12 (stereo partly drawn) [Compound 4b, (3α,5β)-3-Hydroxy-13,24-cyclo-18,21-dinorcholan-23-one] | 197 to 198 | 1440 ± 20 nM | 3550 ± 1150 | 0.97 ± 0.03 | 1.03 ± 0.08 | 3.17 ± 0.42 | 0.01 ± 0.01 | 899 ± 150 | – | –
2 | CC12CCC(O)CC1CCC1C2CCC23C(=O)CCCC2CCC13 (stereo not drawn) [Compound 5b, (3α,5β)-3-Hydroxy-13,24-cyclo-18,21-dinorcholan-24-one] | 177 to 178 | 400 ± 120 nM | 890 | 1.26 ± 0.05 | 3.45 ± 0.29 | 10.42 ± 1.65 | 0.04 ± 0.02 | 329 ± 35 | – | –
3 | CC12CCC(O)CC1CCC1C2CCC23CC4OC4C(=O)C2CCC13 [Compound 19b, (3α,5α,22R,23R)-22,23-Epoxy-3-hydroxy-13,24-cyclo-18,21-dinorcholan-20-one] | 194 to 195 | 960 ± 290 nM | – | 1.13 ± 0.02 | 2.11 ± 0.26 | 5.47 ± 0.62 | 0.21 ± 0.02 | 313 ± 18 | 10000 | –
4 | CC12CCC(O)CC1CCC1C2CCC23C=C(Br)C(=O)C2CCC13 (stereo not drawn) [Compound 95, (3α,5α)-21-bromo-3-hydroxy-18,21-cyclopregn-18(21)-en-20-one] | 220 to 222.5 | 290 ± 40 nM | 550 ± 90 | 1.25 ± 0.08 | 1.99 ± 0.20 | 8.75 ± 1.92 | 0.02 ± 0.02 | 94 ± 17 | – | –
5 | CC12CCC(O)CC1CCC1C2CCC23CC(=O)C=CC2CCC13 (stereo not drawn) [Compound 21c, (3α,5α)-3-Hydroxy-13,24-cyclo-18,21-dinorchol-20(22)-en-23-one] | 209 to 210 | 1280 ± 380 nM | – | 1.59 ± 0.14 | 5.53 ± 0.66 | 16.58 ± 2.45 | 0.35 ± 0.12 | 243 ± 11 | 10000 | –
6 | C[C@]12CC[C@@H](O)C[C@@H]1CCC1C3CC[C@@H]4CC(=O)CC[C@]34CCC12 (stereo partly drawn) [Compound 3a, (3α,5α)-3-Hydroxy-13,24-cyclo-18,21-dinorcholan-22-one] | 195 to 197 | 2370 ± 470 nM | – | 1.30 ± 0.15 | 1.61 ± 0.22 | 2.93 ± 0.68 | 0.06 ± 0.06 | 1440 | – | None @ 10
7 | CC(=O)C1CCCC23CCC4C(CCC5CC(O)CCC54C)C2CCC13 [Compound 79, (3α,5α,20S)-1-[3-Hydroxy-13,24-cyclo-18,21-dinorcholan-20-yl]ethanone] | 187 to 189 | None @ 10 | – | 1.00 ± 0.08 | 1.13 ± 0.15 | 1.70 ± 0.12 | −0.06 ± 0.04 | 93 ± 9 | – | None @ 10
8 | C[C@]12CC[C@@H](O)C[C@@H]1CCC1C3CC[C@@H]4[C@@H]5O[C@@H]5CC[C@]34CCC12 (stereo partly drawn) [Compound 72, (3α,5α,20S,22R)-20,22-epoxy-13,24-cyclo-18,21-dinorcholan-3l] | 203.5 to 205 | 19300 ± 30800 nM | – | 0.90 ± 0.15 | 2.20 ± 0.25 | 6.39 ± 1.33 | −0.01 ± 0.04 | 323 ± 25 | – | None @ 10
9 | CC(=O)C1=CCCC23CCC4C(CCC5CC(O)CCC54C)C2CCC13 (stereo not drawn) [Compound 83, (3α,5α)-1-[3-Hydroxy-13,24-cyclo-18,21-dinorchol-20(22)-en-20-yl]ethanone] | 198 to 200 | 7200 ± 6620 nM | – | 0.89 ± 0.02 | 0.86 ± 0.04 | 1.15 ± 0.04 | 0.00 ± 0.00 | 3190 | – | None @ 10
10 | CC12CCC(O)CC1CCC1C2CCC23CCCC(=CC#N)C2CCC13 (stereo not drawn) [Compound 64, (3α,5α,20Z)-3-Hydroxy-13,24-cyclo-18-norcholan-20-ene-21-carbonitrile] | 201.5 to 203 | 680 ± 150 nM | 10200 | 1.19 ± 0.04 | 1.27 ± 0.03 | 1.74 ± 0.11 | 0.03 ± 0.04 | 1080 | – | –
11 | CC12CCC(O)CC1CCC1C2CCC23CCC=CC2CCC13 (stereo not drawn) [Compound 13a, (3α,5α)-13,24-Cyclo-18,21-dinorchol-20(22)-en-3-ol] | 169 to 170 | >10000 nM | – | 1.53 ± 0.45 | 2.12 ± 0.40 | 2.68 ± 0.42 | −0.32 ± 0.15 | 569 ± 28 | – | None @ 10
12 | C[C@]12CC[C@@H](O)C[C@@H]1CCC1C3CC[C@@H]4C=CC=C[C@]34CCC12 (stereo partly drawn) [Compound 60, (3α,5α)-13,24-Cyclo-18,21-dinorchol-20(22),23-dien-3-ol] | 136 to 138 | 2700 ± 720 nM | > 10000 | – | – | 1.1 ± 0.1 | – | 467 ± 26 | – | –
13 | CC12CCC(O)CC1CCC1C2CCC23CC=CC(=O)C2CCC13 (stereo not drawn) [Compound 11b, (3α, 5β)-3-Hydroxy-13,24-cyclo-18,21-dinorchol-22-en-20-one] | 253 to 254 | 2560 ± 1390 nM | 8950 ± 10 | 1.07 ± 0.17 | 1.17 ± 0.11 | 2.34 ± 0.37 | 0.11 ± 0.04 | 1570 | – | –
